Series [1] in a line: in vivo. To be noted: rat. The source says:
(§1) In the following table, ID50 is the dose which reduced the diameter of the wheal by 50% when injected intravenously together with the antigen. LD50 is the intravenous dose that caused death in 50% of the test animals. Therapeutic index is the ratio, LD50/ID50. The reference compounds utilized were: disodium chromoglycate (DSCG); 1-(phenoxy)-2-hydroxy-3-[2-(5-1H-tetrazolyl)-chromon-5-yloxy]-propane; 1-(4-chloro-phenoxy)-2-hydroxy-3-[2-(5-1H-tetrazolyl)-chromon-5-yloxy]-propane; 1-(4-hydroxy-phenoxy)-2-hydroxy-3-[2-5-1H-tetrazolyl)-chromon-5-yloxy]-propane; 1-(4-propyl-phenoxy)-2-hydroxy-3-[2-5-1H-tetrazolyl)-chromon-5-yloxy]-propane; and sodium 1-(4-cyano-phenoxy)-2-hydroxy-3-(2-carboxy-chromon-5-yloxy)-propane.

The nature of series [2]: therapeutic index, LD50/ID50 (i.v. lethality over PCA). To be noted: rat, in vivo, iv. Here is the method:
(§2) Compounds described in above examples 3 and 4 were evaluated for anti-allergic activity in the rat by the passive cutaneous anaphylaxis test (hereafter PCA), utilizing egg albumin as the antigen.
as §1

Series [3] concerns passive cutaneous anaphylaxis (skin wheals, egg albumin antigen). Description: passive cutaneous anaphylaxis (PCA) test, egg albumin as the antigen, i.v. The series is classed as in vivo. The note with it: dose that reduced wheal diameter by 50%, injected i.v. together with antigen, rat PCA; for ED50: iv, read-out: ID50 (i.v.). On the procedure: as §2
The intensity of such PCA reactions is assessed by measuring the diameters of wheals which develop in the skin of the test animals. Details of the PCA test can be found in the following references: I. Mota, Life Sciences, 1: 465 (1963); and B. Ogilvie, Immunology, 12: 113 (1967).
as §1

Series [4] has the same test system. Description: therapeutic index, LD50/ID50 (i.v. lethality over PCA). On the procedure: as §2, §1
[5] abbreviates: iv, LD50 (i.v.), i.v. dose that caused death in 50% of test animals.
The mark [6] stands for this setting: THERAPEUTIC INDEX, ratio LD50/ID50.

Structures are written as SMILES.

As usually defined, the LD50 is the dose expected to kill half of the subjects tested. Higher therefore signals a less toxic substance. Consider `N#Cc1ccc(OCC(O)COc2cccc3oc(C(=O)O)cc(=O)c23)cc1.[Na]` (stereo not drawn), for which the LD50 in series [1] (iv, LD50 (i.v.)) came to 2380 µmol/kg. Further, in series [2], the selectivity ratio was determined as 3170.
For the compound `CCCc1ccc(OCC(O)COc2cccc3oc(-c4nnn[nH]4)cc(=O)c23)cc1` (stereo not drawn) [Augstein C3 H7], in series [3], the ED50 is greater than 25 µmol/kg. The compound also had an LD50 in series [1] (setting [5]) greater than 493 µmol/kg. The selectivity ratio in series [2] (setting [6]) was greater than 19.7.
For the compound `O=c1cc(-c2nnn[nH]2)oc2cccc(OCC(O)COc3ccc(Cl)cc3)c12` (stereo not drawn) [Augstein Cl, 1-(4-chloro-phenoxy)-2-hydroxy-3-[2-(5-1H-tetrazolyl)-chromon-5-yloxy]-propane], the ED50 in series [3] was determined as 1.8 µmol/kg. In series [1] (in vivo), this compound came in with an LD50 greater than 1.8 µmol/kg. In addition, the selectivity ratio in series [2] was greater than 1.
For `O=c1cc(-c2nnn[nH]2)oc2cccc(OCC(O)COc3ccccc3)c12` (stereo not drawn) [Augstein H, 1-(phenoxy)-2-hydroxy-3-[2-(5-1H-tetrazolyl)-chromon-5-yloxy]-propane], the ED50 in series [3] was 2.25 µmol/kg. The compound further returned an LD50 in series [1] (setting [5]) greater than 1050 µmol/kg. Further, the selectivity ratio in series [2] (setting [6]) was greater than 467.
As to `O=c1cc(-c2nnn[nH]2)oc2cccc(OCC(O)COc3ccc(O)cc3)c12` (stereo not drawn) [Augstein OH], in series [3], the ED50 was 0.675 µmol/kg. The compound further showed an LD50 in series [1] (setting [5]) of 1260 to 4950 µmol/kg. Besides, in series [2] (setting [6]), the selectivity ratio was 1870 to 7480.
As for `O=C(O)c1cc(=O)c2c(OCC(O)COc3cccc4oc(C(=O)O)cc(=O)c34)cccc2o1` [DSCG, disodium chromoglycate], the ED50 in series [3] came out at 1.7 µmol/kg. In addition, in series [1] (setting [5]), the LD50 worked out at 1950 µmol/kg. For the same compound, in series [2] (setting [6]), the selectivity ratio turned out to be 1150.
Turning to `N#Cc1ccc(OCC(O)COc2cccc3oc(-c4nnn[nH]4)cc(=O)c23)cc1` (stereo not drawn) [Ex. 3, 1-(4-CYANO-PHENOXY)-2-HYDROXY-3-[2-(5-1H-TETRAZOLYL)CHROMON-5-YLOXY]-PROPANE], the ED50 in series [3] was 0.075 µmol/kg. This compound also returned a 50% lethal dose (LD50) in series [1] (setting [5]) greater than 1180 µmol/kg. The selectivity ratio in series [2] (setting [6]) is greater than 15800. The “therapeutic index, times greater than the nearest conger disclosed in Warren” value in series [4] (rat, in vivo) is “about 5 times”. Moreover, the “therapeutic index, times greater than DSCG” value in series [4] (versus DSCG) was “about 15 times”.
Regarding `N#Cc1ccc(OCC(O)COc2cccc3oc(-c4nnn[nH]4)cc(=O)c23)cc1` (stereo not drawn) [compound 4, SODIUM 1-(4-CYANOPHENOXY)-2-HYDROXY-3-[2-(5-1H-TETRAZOLYL)CHROMON-5-YLOXY]-PROPANE], the “ID50 (i.v.)” value in series [3] was found to be 0.075 µmol/kg. Also, the “therapeutic index compared with prior art compounds” value in series [4] (versus any of the prior art compounds) is “still more superior than any of the prior art compounds”.

These data come from patent publication US4238495A, “1-(4-Cyano-phenoxy)-2-hydroxy-3-[2-(5-1H-tetrazolyl )-chromon-5-yloxy]-propane and salts thereof” (Miles Laboratories, Inc., priority 1976, dated 1980).
